From patent publication US20250115600A1, “COVALENT MODIFIERS OF AKT1 AND USES THEREOF” (Terremoto Biosciences, Inc., priority 2022, published 2025) come the findings set out here.

pIC50: −log10 of the molar value.

Common to all, as to assay: Live cell target engagement (NanoBRET) in HEK293 cells
Holding throughout (format): cell-based
For orientation: Bioluminescence resonance energy transfer reports proximity on the nanometre scale.

One experiment addresses AKT1 E17K (Homo sapiens (Human), UniProt P31749, E17K). The conditions noted are these: for pIC50: HEK293, 2 hours at 37° C.
In another experiment the target is AKT1 WT (Homo sapiens (Human), UniProt P31749). The following applies: HEK293, 2 hours at 37° C.
Chain of AKT1 WT (P31749 whole entry): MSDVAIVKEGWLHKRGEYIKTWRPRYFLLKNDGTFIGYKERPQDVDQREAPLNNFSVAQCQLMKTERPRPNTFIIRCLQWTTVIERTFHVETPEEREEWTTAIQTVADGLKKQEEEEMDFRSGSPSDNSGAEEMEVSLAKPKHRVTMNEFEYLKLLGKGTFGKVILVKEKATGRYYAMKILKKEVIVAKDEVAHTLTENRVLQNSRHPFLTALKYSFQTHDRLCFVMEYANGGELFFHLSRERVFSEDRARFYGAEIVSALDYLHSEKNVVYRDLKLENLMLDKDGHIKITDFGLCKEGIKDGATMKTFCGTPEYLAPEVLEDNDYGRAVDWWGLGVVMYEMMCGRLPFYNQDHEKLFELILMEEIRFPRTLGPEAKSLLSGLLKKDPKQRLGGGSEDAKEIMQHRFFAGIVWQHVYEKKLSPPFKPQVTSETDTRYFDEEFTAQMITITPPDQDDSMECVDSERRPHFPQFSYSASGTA
The next experiment addresses AKT2 (Homo sapiens (Human), UniProt P31751). The following applies: HEK293, 2 hours at 37° C.

Chain of AKT2 (P31751 whole entry): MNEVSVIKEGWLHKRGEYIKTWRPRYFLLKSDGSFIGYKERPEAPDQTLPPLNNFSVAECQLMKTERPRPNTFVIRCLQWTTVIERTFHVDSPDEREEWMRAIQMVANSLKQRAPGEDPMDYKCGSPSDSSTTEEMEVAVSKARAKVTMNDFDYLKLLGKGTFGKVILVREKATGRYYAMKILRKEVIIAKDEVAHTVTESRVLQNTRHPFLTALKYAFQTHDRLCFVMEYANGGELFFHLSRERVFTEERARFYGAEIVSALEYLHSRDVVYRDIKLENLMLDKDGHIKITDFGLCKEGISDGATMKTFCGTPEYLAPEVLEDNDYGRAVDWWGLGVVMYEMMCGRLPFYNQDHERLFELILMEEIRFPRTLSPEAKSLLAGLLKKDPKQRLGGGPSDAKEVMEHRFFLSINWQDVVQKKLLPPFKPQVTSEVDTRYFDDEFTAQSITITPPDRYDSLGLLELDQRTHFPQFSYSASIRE
Chain of AKT1 E17K (P31749 whole entry E17K): as the sequence (P31749 whole entry) above, with E17K counted along it

On to `Nc1ncccc1-c1nc2ccc(-c3ccccc3)nc2n1-c1ccc(CNCCc2cc(O)c(C=O)cc2F)cc1` [Compound 128, 4-(2-((4-(2-(2-aminopyridin-3-yl)-5-phenyl-3H-imidazo[4,5-b]pyridin-3-yl)benzyl)amino)ethyl)-5-fluoro-2-hydroxybenzaldehyde], for which, on AKT1 E17K, the “AKT1 E17K IC50: Selectivity vs AKT1 WT” value is listed as 0.15, the “AKT1 E17K IC50: Selectivity vs AKT2” value is reported as 0.93 and the negative-log IC50 (pIC50) is 6.30 to 7.00. This compound also showed a pIC50 at AKT1 WT of over 7.00. This compound had a negative-log IC50 (pIC50) against AKT2 of 6.30 to 7.00.
`Nc1ncccc1-c1nc2ccc(-c3ccccc3)nc2n1-c1ccc(CNCCCc2ccc(O)c(C=O)c2)cc1` [Compound 129, 5-(3-((4-(2-(2-aminopyridin-3-yl)-5-phenyl-3H-imidazo[4,5-b]pyridin-3-yl)benzyl)amino)propyl)-2-hydroxybenzaldehyde]: at AKT1 E17K, the “AKT1 E17K IC50: Selectivity vs AKT1 WT” value is on record as 0.51, the “AKT1 E17K IC50: Selectivity vs AKT2” value stood at 2.5 and the pIC50 is over 7.00. For the same compound, on AKT1 WT, the pIC50 is over 7.00. The compound also gave a negative-log IC50 (pIC50) against AKT2 of over 7.00.
Turning to `Nc1ncccc1-c1nc2ccc(-c3ccccc3)nc2n1-c1ccc(CNCCCc2ccc(C=O)c(O)c2)cc1` [Compound 130, 4-(3-((4-(2-(2-aminopyridin-3-yl)-5-phenyl-3H-imidazo[4,5-b]pyridin-3-yl)benzyl)amino)propyl)-2-hydroxybenzaldehyde], on AKT1 E17K, the “AKT1 E17K IC50: Selectivity vs AKT1 WT” value came out at 1.5, the “AKT1 E17K IC50: Selectivity vs AKT2” value came to 7 and the pIC50 was over 7.00. The compound further gave a pIC50 against AKT1 WT of over 7.00. For the same compound, on AKT2, the negative logarithm of the IC50 (pIC50) was 6.30 to 7.00.
With `Nc1ncccc1-c1nc2ccc(-c3ccccc3)nc2n1-c1ccc(C(=O)NCCc2ccc(C=O)c(O)c2)cc1` [Compound 131, 4-(2-(2-aminopyridin-3-yl)-5-phenyl-3H-imidazo[4,5-b]pyridin-3-yl)-N-(4-formyl-3-hydroxyphenethyl)benzamide], the “AKT1 E17K IC50: Selectivity vs AKT1 WT” value at AKT1 E17K is 1.6. Further, the “AKT1 E17K IC50: Selectivity vs AKT2” value on AKT1 E17K is given as 13. Moreover, the results for the pIC50 on AKT1 E17K, on AKT1 WT and on AKT2 were over 7.00, over 7.00 and 6.30 to 7.00, respectively.
Regarding `Nc1ncccc1-c1nc2ccc(-c3ccccc3)nc2n1-c1ccc(C2(NCCc3ccc(C=O)c(O)c3)CCC2)cc1` [Compound 134, 4-(2-((1-(4-(2-(2-aminopyridin-3-yl)-5-phenyl-3H-imidazo[4,5-b]pyridin-3-yl)phenyl)cyclobutyl)amino)ethyl)-2-hydroxybenzaldehyde], on AKT1 E17K, the “AKT1 E17K IC50: Selectivity vs AKT1 WT” value is 2.3, the “AKT1 E17K IC50: Selectivity vs AKT2” value amounted to 4.3 and the pIC50 was under 6.30. The same compound gave a negative-log IC50 (pIC50) against AKT1 WT of under 6.30. In addition, the negative logarithm of the IC50 (pIC50) against AKT2 was under 6.30.
As for `Nc1ncccc1-c1nc2ccc(-c3ccccc3)nc2n1-c1ccc(CNCCc2ccc(O)c(C=O)c2)cc1` [Compound 135, 5-(2-((4-(2-(2-aminopyridin-3-yl)-5-phenyl-3H-imidazo[4,5-b]pyridin-3-yl)benzyl)amino)ethyl)-2-hydroxybenzaldehyde], the “AKT1 E17K IC50: Selectivity vs AKT1 WT” value on AKT1 E17K worked out at 0.16. At AKT1 E17K, the “AKT1 E17K IC50: Selectivity vs AKT2” value is reported as 0.72. Further, the pIC50 against AKT1 E17K, against AKT1 WT and at AKT2 was over 7.00 throughout.
In the case of `Nc1ncccc1-c1nc2ccc(-c3ccccc3)nc2n1-c1ccc(CN2CCC(c3ccc(O)c(C=O)c3)CC2)cc1` [Compound 136, 5-(1-(4-(2-(2-aminopyridin-3-yl)-5-phenyl-3H-imidazo[4,5-b]pyridin-3-yl)benzyl)piperidin-4-yl)-2-hydroxybenzaldehyde], on AKT1 E17K, the “AKT1 E17K IC50: Selectivity vs AKT1 WT” value is given as 1.3, the “AKT1 E17K IC50: Selectivity vs AKT2” value stood at 1.9 and the pIC50 was over 7.00. Besides, the pIC50 at AKT1 WT was over 7.00. The same compound showed a negative-log IC50 (pIC50) on AKT2 of over 7.00.
`Nc1ncccc1-c1nc2ccc(-c3ccccc3)nc2n1-c1ccc(C(=O)NCc2ccc(C=O)c(O)c2)cc1` [Compound 137, 4-(2-(2-aminopyridin-3-yl)-5-phenyl-3H-imidazo[4,5-b]pyridin-3-yl)-N-(4-formyl-3-hydroxybenzyl)benzamide]: on AKT1 E17K, the “AKT1 E17K IC50: Selectivity vs AKT1 WT” value is recorded as 0.91, the “AKT1 E17K IC50: Selectivity vs AKT2” value turned out to be 4.1 and the negative-log IC50 (pIC50) was over 7.00. In addition, at AKT1 WT, the pIC50 is over 7.00. The pIC50 against AKT2 is 6.30 to 7.00.
Take `Nc1ncccc1-c1nc2ccc(-c3ccc(N4CCOCC4)cc3)nc2n1-c1ccc(CNC(=O)Cc2ccc(C=O)c(O)c2)cc1` [Example 1, N-(4-(2-(2-aminopyridin-3-yl)-5-(4-morpholinophenyl)-3H-imidazo[4,5-b]pyridin-3-yl)benzyl)-2-(4-formyl-3-hydroxyphenyl)acetamide]: on AKT1 E17K, the “AKT1 E17K IC50: Selectivity vs AKT1 WT” value turned out to be 6.1, the “AKT1 E17K IC50: Selectivity vs AKT2” value is recorded as 85 and the negative-log IC50 (pIC50) was over 7.00. The negative logarithm of the IC50 (pIC50) on AKT1 WT is over 7.00. The same compound showed a pIC50 against AKT2 of under 6.30.
Take `CC(=O)Nc1cccc(-c2ccc3nc(-c4cccnc4N)n(-c4ccc(CNC(=O)Cc5ccc(C=O)c(O)c5)cc4)c3n2)c1` [Example 2, N-(4-(5-(3-acetamidophenyl)-2-(2-aminopyridin-3-yl)-3H-imidazo[4,5-b]pyridin-3-yl)benzyl)-2-(4-formyl-3-hydroxyphenyl)acetamide]: the “AKT1 E17K IC50: Selectivity vs AKT1 WT” value on AKT1 E17K was 3.1. The “AKT1 E17K IC50: Selectivity vs AKT2” value at AKT1 E17K was 19. Further, the values for the pIC50 on AKT1 E17K, at AKT1 WT and against AKT2 were over 7.00, 6.30 to 7.00 and under 6.30, respectively.
The corresponding values for `Nc1ncccc1-c1nc2ccc(N3CCOCC3)nc2n1-c1ccc(CNC(=O)c2ccc(O)c(C=O)c2)cc1` [Example 3, N-(4-(2-(2-aminopyridin-3-yl)-5-morpholino-3H-imidazo[4,5-b]pyridin-3-yl)benzyl)-3-formyl-4-hydroxybenzamide] are 2.2, 36, 6.30 to 7.00, 6.30 to 7.00 and under 6.30.
As to `Nc1ncccc1-c1nc2ccc(-c3ccccc3)nc2n1-c1ccc(CNC(=O)c2cc(C=O)c(O)cc2F)cc1` [Example 4, N-({4-[2-(2-aminopyridin-3-yl)-5-phenylimidazo[4,5-b]pyridin-3-yl]phenyl}methyl)-2-fluoro-5-formyl-4-hydroxybenzamide], on AKT1 E17K, the “AKT1 E17K IC50: Selectivity vs AKT1 WT” value was 2, the “AKT1 E17K IC50: Selectivity vs AKT2” value was found to be 38 and the pIC50 is over 7.00. At AKT1 WT, this compound had a negative-log IC50 (pIC50) of over 7.00. The compound also had a pIC50 against AKT2 of under 6.30.
Turning to `Nc1ncccc1-c1nc2ccc(-c3ccccc3)nc2n1-c1ccc(CNC(=O)Cc2ccc(C=O)c(O)c2C(F)(F)F)cc1` [Example 5, N-(4-(2-(2-aminopyridin-3-yl)-5-phenyl-3H-imidazo[4,5-b]pyridin-3-yl)benzyl)-2-(4-formyl-3-hydroxy-2-(trifluoromethyl)phenyl)acetamide], on AKT1 E17K, the “AKT1 E17K IC50: Selectivity vs AKT1 WT” value amounted to 2.9, the “AKT1 E17K IC50: Selectivity vs AKT2” value came to 32 and the pIC50 is over 7.00. For the same compound, the negative logarithm of the IC50 (pIC50) on AKT1 WT is over 7.00. The negative-log IC50 (pIC50) against AKT2 was under 6.30.
On to `Nc1ncccc1-c1nc2ccc(C3CC3C(=O)N3CCOCC3)nc2n1-c1ccc(CNC(=O)Cc2ccc(C=O)c(O)c2)cc1` (stereo not drawn) [Example 6, N-({4-[2-(2-aminopyridin-3-yl)-5-[2-(morpholine-4-carbonyl)cyclopropyl]imidazo[4,5-b]pyridin-3-yl]phenyl}methyl)-2-(4-formyl-3-hydroxyphenyl)acetamide], for which, on AKT1 E17K, the “AKT1 E17K IC50: Selectivity vs AKT1 WT” value is 8.7, the “AKT1 E17K IC50: Selectivity vs AKT2” value is listed as 18 and the pIC50 is 6.30 to 7.00. Moreover, the negative logarithm of the IC50 (pIC50) against AKT1 WT is under 6.30. The pIC50 at AKT2 was under 6.30.
Regarding `Nc1ncccc1-c1nc2ccc(C(F)F)nc2n1-c1ccc(CNC(=O)Cc2ccc(C=O)c(O)c2)cc1` [Example 7, N-({4-[2-(2-aminopyridin-3-yl)-5-(difluoromethyl)imidazo[4,5-b]pyridin-3-yl]phenyl}methyl)-2-(4-formyl-3-hydroxyphenyl)acetamide], at AKT1 E17K, the “AKT1 E17K IC50: Selectivity vs AKT1 WT” value came to 5.8, the “AKT1 E17K IC50: Selectivity vs AKT2” value came out at 110 and the negative-log IC50 (pIC50) was over 7.00. Further, the negative logarithm of the IC50 (pIC50) against AKT1 WT was 6.30 to 7.00. On AKT2, this compound gave a pIC50 of under 6.30.
The corresponding values for `Nc1ncccc1-c1nc2ccc(N3CC4CCC(C3)O4)nc2n1-c1ccc(CNC(=O)Cc2ccc(C=O)c(O)c2)cc1` [Example 8, N-({4-[2-(2-aminopyridin-3-yl)-5-{8-oxa-3-azabicyclo[3.2.1]octan-3-yl}imidazo[4,5-b]pyridin-3-yl]phenyl}methyl)-2-(4-formyl-3-hydroxyphenyl)acetamide] are 12, 120, over 7.00, 6.30 to 7.00 and under 6.30.
In the same order, the values of `Nc1ncccc1-c1nc2ccc(OC3CC3)nc2n1-c1ccc(CNC(=O)Cc2ccc(C=O)c(O)c2)cc1` [Example 10, N-({4-[2-(2-aminopyridin-3-yl)-5-cyclopropoxyimidazo[4,5-b]pyridin-3-yl]phenyl}methyl)-2-(4-formyl-3-hydroxyphenyl)acetamide] are 3.9, 160, over 7.00, over 7.00 and under 6.30.
In the same order, the values of `Nc1ncccc1-c1nc2ccc(-c3ccccc3)nc2n1-c1ccc(CC(=O)NC2(c3ccc(C=O)c(O)c3)CC2)cc1` [Example 11, 2-{4-[2-(2-aminopyridin-3-yl)-5-phenylimidazo[4,5-b]pyridin-3-yl]phenyl}-N-[1-(4-formyl-3-hydroxyphenyl)cyclopropyl]acetamide] are 3.1, 28, over 7.00, over 7.00 and 6.30 to 7.00.

One may read the pIC50 as −log10 of the IC50, conventionally taken in molar units. A high value points to a low IC50.
